The values that follow come from PMC10695616, “Rational design peptide inhibitors of Cyclophilin D as a potential treatment for acute pancreatitis” (Medicine, 2023).

In general, pIC50 refers to the negative decadic logarithm of the IC50, by convention in mol/L.

pIC50: −log10 of the molar value. Ends that are not written are not given here.

The target in this experiment is T1, Human recombinant CypD (Homo sapiens, UniProt P30405).
T1 construct: purchased Beyotime (Shanghai, China)
T1 sequence (P30405 30-207): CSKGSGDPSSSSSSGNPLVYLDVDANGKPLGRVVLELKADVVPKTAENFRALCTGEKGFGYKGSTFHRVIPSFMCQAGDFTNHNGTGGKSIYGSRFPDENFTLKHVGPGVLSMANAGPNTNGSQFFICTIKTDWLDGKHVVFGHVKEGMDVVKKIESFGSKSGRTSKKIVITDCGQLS
Nature of the experiment: chymotrypsin coupled prolyl-isomerase inhibitory assay. To be noted: Suc-AAPF-AMC substrate, peptide 0.001 to 100 μM, 25 °C. It counts as biochemical. On the procedure: The method for measuring half-maximal inhibitory concentration (IC50) values of the peptides against CypD was described previously as chymotrypsin coupled prolyl-isomerase assay. Human recombinant CypD was purchased from Beyotime (Shanghai, China). The substrate solution for inhibitory assay was prepared as 100 μM Suc-AAPF-AMC (Chymotrypsin Substrate II, Sigma–Aldrich, Shanghai, China) with varied concentration of selected peptide (varied from 0.001 to 100 μM), 15 μg/mL CypD, and 0.5 M LiCl/2,2,2-trifluoroethanol. Alpha-chymotrypsin from bovine pancreas was purchased from Sigma (Shanghai, China) and dissolved in 0.001 M HCl, the concentration for chymotrypsin was prepared to 5 mg/mL. For inhibitory assay, the 96-well plate was filled with 150 μL of the substrate solution and incubated at 25 °C for 1 hour, followed by adding 40 μL of the chymotrypsin solution. The fluorescent changes under 380 nm was captured every 5 seconds for 300 seconds using Mltrospec 3100. The IC50 value was calculated which indicated the peptide concentration needed for obtaining 50% of […] inhibitory activity.
The binding affinity of selected peptides against CypD was tested using a modified inhibitory assay.[37] […] The selected 5 peptides were preincubated with CypD to validate their capability for blocking CypD activity. […] Compound C-9 was previously reported as a strong binder of CypD,[37] therefore, we adopted compound C-9 as a reference sample to evaluate the binding activity of the designed peptides.
Consider WACKN [WACKN], for which the pIC50 was 5.61.
Under WACLQ [WACLQ] stands 6.43; under WACKQ [WACKQ], 4.98; under WACNQ [WACNQ], 5.58.
